Source: patent US8076281B2, “Use of a ghrelin agonist to improve the catabolic effects of glucocorticoid treatment” (IPSEN Pharma, S.A.S., priority 2006, dated 2011)

Experiments:
[1] = 24-hour food intake and food efficiency; assay type: in vivo, Sprague-Dawley rats; conditions: for 24-h food intake: after 10 days of dexamethasone treatment, compared with saline-treated animals, FIG. 4A; for food efficiency: ratio body weight gain (g) / food intake (g), compared with saline treatment
Description: (§1) Beginning on the 23rd day (i.e., the animals were 23 days old), 16 of the study animals were treated intraperitoneally (Ip) daily with 40 μg/kg of either saline or dexamethasone sodium phosphate (sold under the trademark Decadron® by Merck Pharmaceuticals, West Point, Pa.). Beginning on the 30th day (i.e., the animals were 30 days old), the subgroup of 16 studied animals was further divided into groups of 8 and treated subcutaneously three times daily (at approximately 9:00 am, 1:00 pm and 5:00 pm) with either 80 nmoles/kg of the preferred ghrelin analog [Aib^2, Glu^3(NH-hexyl)]hGhrelin(1-28)-NH2 (SEQ ID NO:2) (IPSEN, Milford, Mass.) dissolved in a sterile saline solution with 0.25% bovine serum albumin or vehicle (the saline-bovine serum albumin solution alone). This regimen continued for 24 days during which time the studied animals were weighed two times per week. At irregular intervals, the cumulative food intake for a 24-hour period of time was measured. Beginning on the 46th day (i.e., the animals were 46 days old), the length of the test and control animals from nose to anus was measured (hereinafter referred to as “the nose-anal length”). On the 47th day (i.e., the animals were 47 days old), all food was denied to the test subjects commencing at 8:00 am. Small samples of blood were taken via percutaneous puncture of the tail to assess blood glucose levels during the treatment period.
Food efficiency was calculated as the ratio between body weight gain (in grams) and food intake (in grams) measured over the same time interval.

[2] = Effects of pharmacological treatments on plasma hormones and glucose concentrations; assay type: in vivo, Sprague-Dawley rats; conditions: for plasma IGF-1 concentration (in words): compared with saline; for plasma corticosterone (in words) / plasma insulin (in words): compared with saline / vehicle
Description: as §1
The test animals received two subcutaneous administrations of [Aib^2, Glu^3(NH-hexyl)]hGhrelin(1-28)-NH2 (SEQ ID NO:2) at approximately 9:00 am and 1:00 pm. The studied animals were sacrificed by rapid decapitation at approximately 2:00 pm, trunk blood collected for hormone level determinations, and the epididymal fat pads removed and weighed.
Samples of trunk blood were taken from the test subjects following decapitation. The blood samples were collected in tubes containing EDTA, separated by centrifugation, and stored at −20° C. Plasma insulin, IGF-1, and corticosterone levels were all measured using commercial RIA kits (Insulin and Corticosterone kits were both obtained from ICN-Biomedicals, Asse-Relegem, BELGIUM and the rIGF-1 test kit was obtained from Mediagnostic GMbH, Tubingen, GERMANY). Glucose concentration was determined using the Glucotrend® Soft Test System blood glucose meter (Roche Diagnostics, Barcelona, SPAIN).
Unless otherwise stated, the results reported in FIGS. 3-6 are expressed as the mean±SEM of eight replicate test subjects. Data was analyzed for statistical significance by one-way ANOVA which determines the variation (variance) within the groups and how that variation translates into variation (i.e. differences) between the groups, taking into account how many subjects there are in each group. […] The linear correlation analysis was performed either by Pearson's parametric test or by Spearman's nonparametric test. A P value below 0.05 was considered significant.

[3] = Effects of pharmacological treatments on growth parameters in young rats; assay type: in vivo, Sprague-Dawley rats; conditions: FIG. 3; for somatic growth: young male rats, compared to SAL-treated rats
Description: Thirty-two prepubertal male Sprague-Dawley rats approximately 21 days old and weighing between 45 and 55 grams, were obtained from Harlan, Italy (S. Pietro al Natisone, ITALY). During the study, the animals were maintained in accordance with the guidelines of the Italian Ministry of Health for the care and use of laboratory animals (Decreto legge 116/92). The animals were randomly divided into two treatment groups and kept in a controlled environment at a constant temperature of 21-23° C. with 12:12 light/dark exposure continuous period wherein the light exposure began at approximately 8:00 am and ended at approximately 8:00 pm. The animals were provided with water and food ad libitum consisting of an approximate 3200 calories/kg daily diet of standard pellet chow provided by Piccioni, Gessate-Milano, Italy (containing at least 19% protein, 3% fat and 56% carbohydrate).
Beginning on the 23rd day (i.e., the animals were 23 days old), 16 of the study animals were treated intraperitoneally (Ip) daily with 40 μg/kg of either saline or dexamethasone sodium phosphate (sold under the trademark Decadron® by Merck Pharmaceuticals, West Point, Pa.). […] At irregular intervals, the cumulative food intake for a 24-hour period of time was measured. Beginning on the 46th day (i.e., the animals were 46 days old), the length of the test and control animals from nose to anus was measured (hereinafter referred to as “the nose-anal length”). […]
Unless otherwise stated, the results reported in FIGS. 3-6 are expressed as the mean±SEM of eight replicate test subjects. Data was analyzed for statistical significance by one-way ANOVA which determines the variation (variance) within the groups and how that variation translates into variation (i.e. differences) between the groups, taking into account how many subjects there are in each group. […]

[4] = in the rat; cited from earlier work

## C[C@@H]1C[C@H]2[C@@H]3CCC4=CC(=O)C=C[C@]4(C)[C@@]3(F)[C@@H](O)C[C@]2(C)[C@@]1(O)C(=O)CO [Dexamethasone, 9-fluoro-11β, 17, 21-trihydroxy-16a-methylpregna-1,4-diene-3,20-dione, reference compound]
[1]
  24-h food intake: significant reduction
[1]; FIG. 4B
  food efficiency: significantly reduced food efficiency
[1]; up to 10 days from the beginning of the treatment
  cumulative 24-hour food intake: did not significantly affect
[2]
  plasma IGF-1 concentration (in words): significantly reduced
  plasma corticosterone (in words): suppressed almost completely
  plasma insulin (in words): tended to increase plasma insulin concentration, but the effect did not reach statistical significance
[3]
  somatic growth: significantly decreased

## GHRP-6
[4]
  glucocorticoid-mediated GH-inhibition: completely counteract

## [Aib^2, Glu^3(NH-hexyl)]hGhrelin(1-28)-NH2 (GXEFLSPEHQRVQQRKESKKPPAKLQPR; Aib2, Glu3 NH-hexyl, C-terminal amide; Ghrelin analog)
[1]
  24-h food intake: increased daily food intake
[1]; in dexamethasone-treated rats, FIG. 4B
  decrease of food efficiency induced by dexamethasone: able to reverse
[1]; FIG. 4B
  food efficiency: increased food efficiency
[2]; at sacrifice (day 47), mean ± SEM of eight animals
  Glucose: 122 ± 3 mg/dL
[2]
  plasma IGF-1 concentration (in words): higher IGF-1 levels
  plasma corticosterone (in words): clear-cut increase
  plasma insulin (in words): unchanged
[2]; in dexamethasone-treated animals
  suppression of the HPA axis (corticosterone) in dexamethasone-treated animals: not able to overcome
[2]; in dexamethasone-treated subjects
  IGF-1 suppression in dexamethasone-treated subjects: partially reversed
[3]; concomitant treatment in DEX-treated rats
  growth suppression induced by DEX: reversed
[3]
  somatic growth: significantly increased
